Measured values as given in PubChem BioAssay AID2060336 (Molecular Pharmacology Branch, DTP, NCI, 2025).

Test system: 958767-090-R-J1-PDC spheroid growth
Assay: Anticancer human tumor 958767-090-R-J1-PDC patient-derived head and neck squamous carcinoma cell line growth inhibition [IpAb]
Details: spheroids with HUVEC and MSC; for IC50: curve of first compound; for viability, T/C: stronger effect = lower value
Summary of the method: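 Combinations with ipatasertib or abemaciclib were tested on tumour spheroids holding HUVEC (25%) and MSC (15%) alongside 60% malignant cells. Top concentration was at or near clinical Cmax (10 microM if undefined), descending in half-log steps.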

[1] = second compound 0.1 µM, first compound 0.0316 µM
[2] = second compound 0.1 µM, first compound 0.1 µM
[3] = second compound 0.316 µM, first compound 0.0316 µM
[4] = second compound 0.316 µM, first compound 0.1 µM
[5] = second compound 1 µM, first compound 0.0316 µM
[6] = second compound 1 µM, first compound 0.1 µM
[7] = second compound 3.16 µM, first compound 0.0316 µM
[8] = second compound 3.16 µM, first compound 0.1 µM
[9] = second compound 10 µM, first compound 0.0316 µM
[10] = second compound 10 µM, first compound 0.1 µM
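Further: spheroids exposed to agents for 7 days.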
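Wherever viability, T/C is given: 100% = DMSO vehicle control wells.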

Cn1ncc(Cl)c1-c1cc(C(=O)NC(CN)Cc2cccc(F)c2)sc1Cl (stereo not given) + CC(C)NCC(C(=O)N1CCN(c2ncnc3c2C(C)CC3O)CC1)c1ccc(Cl)cc1
IC50 (second compound 0.1 µM): 1210 nM
IC50 (second compound 0.316 µM): 952 nM
IC50 (second compound 1 µM): 1020 nM
IC50 (second compound 3.16 µM): 113 nM
IC50 (second compound 10 µM): < 31.6 nM
viability, T/C [1]: 70.3%
viability, T/C [2]: 70.3%
viability, T/C (second compound 0.1 µM, first compound 0.316 µM): 54.5%
viability, T/C (second compound 0.1 µM, first compound 1 µM): 59.3%
viability, T/C (second compound 0.1 µM, first compound 3.16 µM): 32.8%
viability, T/C (second compound 0.1 µM, first compound 10 µM): 0.14%
viability, T/C [3]: 57.5%
viability, T/C [4]: 62.6%
viability, T/C (second compound 0.316 µM, first compound 0.316 µM): 52.2%
viability, T/C (second compound 0.316 µM, first compound 1 µM): 47.5%
viability, T/C (second compound 0.316 µM, first compound 3.16 µM): 37.9%
viability, T/C (second compound 0.316 µM, first compound 10 µM): 0.46%
viability, T/C [5]: 54.6%
viability, T/C [6]: 50.8%
viability, T/C (second compound 1 µM, first compound 0.316 µM): 55.4%
viability, T/C (second compound 1 µM, first compound 1 µM): 50%
viability, T/C (second compound 1 µM, first compound 3.16 µM): 31.6%
viability, T/C (second compound 1 µM, first compound 10 µM): 0.13%
viability, T/C [7]: 53.1%
viability, T/C [8]: 47.6%
viability, T/C (second compound 3.16 µM, first compound 0.316 µM): 48.4%
viability, T/C (second compound 3.16 µM, first compound 1 µM): 45.7%
viability, T/C (second compound 3.16 µM, first compound 3.16 µM): 32.3%
viability, T/C (second compound 3.16 µM, first compound 10 µM): 0.64%
viability, T/C [9]: 42.5%
viability, T/C [10]: 36.3%
viability, T/C (second compound 10 µM, first compound 0.316 µM): 39.8%
viability, T/C (second compound 10 µM, first compound 1 µM): 42.5%
viability, T/C (second compound 10 µM, first compound 3.16 µM): 22.2%
viability, T/C (second compound 10 µM, first compound 10 µM): 0.81%

Cn1ncnc1[C@H]1c2n[nH]c(=O)c3cc(F)cc(c23)N[C@@H]1c1ccc(F)cc1 + CC(C)NCC(C(=O)N1CCN(c2ncnc3c2C(C)CC3O)CC1)c1ccc(Cl)cc1
IC50 (second compound 0.1 µM): > 100 nM
IC50 (second compound 0.316 µM): > 100 nM
IC50 (second compound 1 µM): > 100 nM
IC50 (second compound 3.16 µM): > 100 nM
IC50 (second compound 10 µM): 51.3 nM
viability, T/C (second compound 0.1 µM, first compound 0.000316 µM): 91.5%
viability, T/C (second compound 0.1 µM, first compound 0.001 µM): 87.8%
viability, T/C (second compound 0.1 µM, first compound 0.00316 µM): 91.2%
viability, T/C (second compound 0.1 µM, first compound 0.01 µM): 83.7%
viability, T/C [1]: 87.4%
viability, T/C [2]: 73%
viability, T/C (second compound 0.316 µM, first compound 0.000316 µM): 70%
viability, T/C (second compound 0.316 µM, first compound 0.001 µM): 77.4%
viability, T/C (second compound 0.316 µM, first compound 0.00316 µM): 74.7%
viability, T/C (second compound 0.316 µM, first compound 0.01 µM): 86.8%
viability, T/C [3]: 77.6%
viability, T/C [4]: 65.8%
viability, T/C (second compound 1 µM, first compound 0.000316 µM): 69.5%
viability, T/C (second compound 1 µM, first compound 0.001 µM): 63.9%
viability, T/C (second compound 1 µM, first compound 0.00316 µM): 72.2%
viability, T/C (second compound 1 µM, first compound 0.01 µM): 74.2%
viability, T/C [5]: 62.4%
viability, T/C [6]: 56.4%
viability, T/C (second compound 3.16 µM, first compound 0.000316 µM): 65%
viability, T/C (second compound 3.16 µM, first compound 0.001 µM): 52.6%
viability, T/C (second compound 3.16 µM, first compound 0.00316 µM): 58.8%
viability, T/C (second compound 3.16 µM, first compound 0.01 µM): 70.2%
viability, T/C [7]: 62.4%
viability, T/C [8]: 59.3%
viability, T/C (second compound 10 µM, first compound 0.000316 µM): 63.3%
viability, T/C (second compound 10 µM, first compound 0.001 µM): 55.3%
viability, T/C (second compound 10 µM, first compound 0.00316 µM): 58.1%
viability, T/C (second compound 10 µM, first compound 0.01 µM): 58.4%
viability, T/C [9]: 56%
viability, T/C [10]: 42%

Cn1cnc2c(F)c(Nc3ccc(Br)cc3Cl)c(C(=O)NOCCO)cc21 + CCN1CCN(Cc2ccc(Nc3ncc(F)c(-c4cc(F)c5nc(C)n(C(C)C)c5c4)n3)nc2)CC1
IC50 (second compound 0.01 µM): 29.3 nM
IC50 (second compound 0.0316 µM): 27 nM
IC50 (second compound 0.1 µM): 12.6 nM
IC50 (second compound 0.316 µM): 9.64 nM
IC50 (second compound 1 µM): 124 nM
viability, T/C (second compound 0.01 µM, first compound 0.00949 µM): 71%
viability, T/C (second compound 0.01 µM, first compound 0.03 µM): 49.4%
viability, T/C (second compound 0.01 µM, first compound 0.0949 µM): 35.2%
viability, T/C (second compound 0.01 µM, first compound 0.3 µM): 34.5%
viability, T/C (second compound 0.01 µM, first compound 0.949 µM): 30%
viability, T/C (second compound 0.01 µM, first compound 3 µM): 23.2%
viability, T/C (second compound 0.0316 µM, first compound 0.00949 µM): 65%
viability, T/C (second compound 0.0316 µM, first compound 0.03 µM): 47.7%
viability, T/C (second compound 0.0316 µM, first compound 0.0949 µM): 36.9%
viability, T/C (second compound 0.0316 µM, first compound 0.3 µM): 29.7%
viability, T/C (second compound 0.0316 µM, first compound 0.949 µM): 29.3%
viability, T/C (second compound 0.0316 µM, first compound 3 µM): 19.7%
viability, T/C (second compound 0.1 µM, first compound 0.00949 µM): 53.1%
viability, T/C (second compound 0.1 µM, first compound 0.03 µM): 41.9%
viability, T/C (second compound 0.1 µM, first compound 0.0949 µM): 34.9%
viability, T/C (second compound 0.1 µM, first compound 0.3 µM): 34.1%
viability, T/C (second compound 0.1 µM, first compound 0.949 µM): 26.7%
viability, T/C (second compound 0.1 µM, first compound 3 µM): 23.5%
viability, T/C (second compound 0.316 µM, first compound 0.00949 µM): 51.9%
viability, T/C (second compound 0.316 µM, first compound 0.03 µM): 41.9%
viability, T/C (second compound 0.316 µM, first compound 0.0949 µM): 40.1%
viability, T/C (second compound 0.316 µM, first compound 0.3 µM): 36.1%
viability, T/C (second compound 0.316 µM, first compound 0.949 µM): 28%
viability, T/C (second compound 0.316 µM, first compound 3 µM): 21.2%
viability, T/C (second compound 1 µM, first compound 0.00949 µM): 69.3%
viability, T/C (second compound 1 µM, first compound 0.03 µM): 67.2%
viability, T/C (second compound 1 µM, first compound 0.0949 µM): 51.9%
viability, T/C (second compound 1 µM, first compound 0.3 µM): 42.8%
viability, T/C (second compound 1 µM, first compound 0.949 µM): 44.5%
viability, T/C (second compound 1 µM, first compound 3 µM): 37%
